In brackets after ≈: the same amount, converted by molar mass.
What was measured:
Influenza A/Sydney/5/97 = assay: Cytopathic effect (CPE) assay in MDCK cells, MTT readout; assay type: cell-based; conditions: concentration that inhibited CPE by 50%, up to 72 hours
A/W SN/33 BVLV09 (H1N1) = assay: Plaque reduction assay (PRA) in MDCK cells; assay type: cell-based, influenza A (H1N1); conditions: reduces plaque numbers by 50%
[1] = tested on: A/New Caledonia/20/99 BVLV008 (H1N1); assay: Plaque reduction assay (PRA) in MDCK cells; assay type: cell-based; conditions: reduces plaque numbers by 50%
[2] = tested on: A/Panama/2007/99 BVLV008 (H3N2); assay: Plaque reduction assay (PRA) in MDCK cells; assay type: cell-based; conditions: reduces plaque numbers by 50%
B/Harbin/7/95 BVLV008 = assay: Plaque reduction assay (PRA) in MDCK cells; assay type: cell-based; conditions: Influenza B virus, read-out: EC50 PRA B/Harb*
[3] = tested on: B/Yamaneshl/166/98 BVLV007; assay: Plaque reduction assay (PRA) in MDCK cells; assay type: cell-based; conditions: Influenza B virus, read-out: EC50 PRA B/Yam*, reduces plaque numbers by 50%, MDCK cells

| SMILES | ID50 A/Sydney/5/97+ (Influenza A/Sydney/5/97) [µg/mL] | EC50 PRA A/W SN* (A/W SN/33 BVLV09 (H1N1)) [µg/mL] | EC50 PRA A/New* [1] [µg/mL] | EC50 PRA A/Pan* [2] [µg/mL] | EC50 (B/Harbin/7/95 BVLV008) [µg/mL] | EC50 [3] [µg/mL] |
| --- | --- | --- | --- | --- | --- | --- |
| CC(=O)N[C@@H]1C(N=C(N)N)C=C(C(=O)O)O[C@H]1[C@H](O)[C@H](O)CO (single isomer, unassigned) [Compound A, 4-guanidino-2-deoxy-2,3-dehydro-N-acetylneuraminic acid] | 0.023 ± 0.024 (≈ 0.0692 µM) | > 0.1 | 0.00023 (≈ 0.000692 µM) | 0.003 (≈ 0.00903 µM) | 0.00019 (≈ 0.000572 µM) | – |
| NC12CC3CC(CC(C3)C1)C2 [Amantadine] | – | – | – | – | – | 2.08 (≈ 13.8 µM) |

Reference: patent publication US7468388B2, “Dimeric compounds and their use as anti-viral agents” (priority 2001, dated 2008)
